Tests used:
KDM5B = KDM5B (Homo sapiens, UniProt Q9UGL1); assay: KDM demethylase inhibition (IC50), KDM5B; format: biochemical; settings: in words
Protocol: The expression levels in the BCSC cells of the various KDM4 family members were evaluated by western blot analysis. Metzger et al., LSD1 demethylates repressive histone marks to promote and rogen receptor-dependent transcription, 437 Nature 436 (2005). […] These observations indicate that KDM4 are therapeutic targets for treatment of BCSC populations. Accordingly, a screen to characterize KDM4(i) was performed to explore compounds suitable for treating cancers, in particular cancers such as therapy resistant clonal BCSC-originating tumors.

[1] = Pharmacokinetic study iv/po; format: in vivo; settings: dose iv/po 5/10 mg/kg

Chain of KDM5B (Q9UGL1 whole entry): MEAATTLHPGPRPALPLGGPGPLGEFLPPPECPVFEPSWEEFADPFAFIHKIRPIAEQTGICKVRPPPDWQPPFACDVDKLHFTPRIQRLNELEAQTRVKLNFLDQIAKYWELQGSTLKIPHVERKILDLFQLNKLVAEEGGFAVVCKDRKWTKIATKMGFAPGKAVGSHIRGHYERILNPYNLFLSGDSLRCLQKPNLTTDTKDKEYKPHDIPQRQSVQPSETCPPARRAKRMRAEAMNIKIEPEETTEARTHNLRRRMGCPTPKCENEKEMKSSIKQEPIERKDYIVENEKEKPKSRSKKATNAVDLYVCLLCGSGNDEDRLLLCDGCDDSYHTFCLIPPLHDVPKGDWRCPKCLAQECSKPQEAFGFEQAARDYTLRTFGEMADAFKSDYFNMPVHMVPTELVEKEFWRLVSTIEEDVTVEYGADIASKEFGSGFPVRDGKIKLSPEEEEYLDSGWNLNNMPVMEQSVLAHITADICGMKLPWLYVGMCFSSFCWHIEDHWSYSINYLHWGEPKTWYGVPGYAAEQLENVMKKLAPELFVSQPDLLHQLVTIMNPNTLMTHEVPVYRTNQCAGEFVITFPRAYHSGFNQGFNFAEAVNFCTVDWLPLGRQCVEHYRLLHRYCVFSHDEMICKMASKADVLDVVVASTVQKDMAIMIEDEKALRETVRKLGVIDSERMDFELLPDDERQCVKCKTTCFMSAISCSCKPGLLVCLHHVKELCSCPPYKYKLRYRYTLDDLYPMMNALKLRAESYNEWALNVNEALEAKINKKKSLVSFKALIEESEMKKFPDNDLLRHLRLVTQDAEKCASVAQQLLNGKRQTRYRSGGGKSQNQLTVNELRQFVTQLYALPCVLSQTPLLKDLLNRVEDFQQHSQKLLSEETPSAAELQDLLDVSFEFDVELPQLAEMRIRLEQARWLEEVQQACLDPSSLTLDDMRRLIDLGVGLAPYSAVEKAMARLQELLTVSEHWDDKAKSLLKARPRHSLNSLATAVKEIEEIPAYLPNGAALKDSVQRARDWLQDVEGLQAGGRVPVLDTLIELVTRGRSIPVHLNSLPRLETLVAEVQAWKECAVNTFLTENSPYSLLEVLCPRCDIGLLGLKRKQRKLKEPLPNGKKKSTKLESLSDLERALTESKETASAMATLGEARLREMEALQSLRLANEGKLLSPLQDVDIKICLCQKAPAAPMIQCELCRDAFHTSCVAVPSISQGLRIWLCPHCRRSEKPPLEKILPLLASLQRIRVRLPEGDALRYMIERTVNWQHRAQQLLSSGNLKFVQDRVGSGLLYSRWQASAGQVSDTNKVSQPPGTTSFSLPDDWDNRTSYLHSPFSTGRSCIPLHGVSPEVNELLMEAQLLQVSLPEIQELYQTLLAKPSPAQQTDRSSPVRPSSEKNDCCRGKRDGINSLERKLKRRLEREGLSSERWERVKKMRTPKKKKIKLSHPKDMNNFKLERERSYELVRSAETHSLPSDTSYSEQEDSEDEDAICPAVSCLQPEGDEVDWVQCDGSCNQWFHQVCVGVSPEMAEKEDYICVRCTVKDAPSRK

CN(c1ccccc1)c1ccc2c(c1)CCC[C@H]2CNc1cnccc1C(=O)O [Compound I, 3-({[(1R)-6-[methyl(phenyl)amino]-1,2,3,4-tetrahydronaphthalen-1-yl]methyl}amino)pyridine-4-carboxylic acid]
effect on the demethylase activity of KDM5B (KDM5B): weak effect | bioavailability ([1]; plasma, read-out: F % (bioavailability)): 30.4% | po ½ ([1]; po): 2.57 h

Reference: patent US12516024B2, “KDM4 inhibitors” (ALBERT-LUDWIGS-UNIVERSITY FREIBURG, priority 2017, dated 2026)
